In ChEMBL document CHEMBL1126469, “On the significance of the C-terminal primary amide in cholecystokinin” (Bioorg Med Chem Lett, 1993):

What was measured:
Rattus norvegicus [1] = species: Rattus norvegicus; assay: The compound was tested for its ability to stimulate amylase secretion from rat pancreatic acini; type: functional, organism-based
[2] = target: T1, Gastrin/cholecystokinin type B receptor (Rattus norvegicus, UniProt P30553); assay: In vitro binding affinity against Cholecystokinin type B receptor of rat pancreatic acini
T1 sequence (P30553 whole entry): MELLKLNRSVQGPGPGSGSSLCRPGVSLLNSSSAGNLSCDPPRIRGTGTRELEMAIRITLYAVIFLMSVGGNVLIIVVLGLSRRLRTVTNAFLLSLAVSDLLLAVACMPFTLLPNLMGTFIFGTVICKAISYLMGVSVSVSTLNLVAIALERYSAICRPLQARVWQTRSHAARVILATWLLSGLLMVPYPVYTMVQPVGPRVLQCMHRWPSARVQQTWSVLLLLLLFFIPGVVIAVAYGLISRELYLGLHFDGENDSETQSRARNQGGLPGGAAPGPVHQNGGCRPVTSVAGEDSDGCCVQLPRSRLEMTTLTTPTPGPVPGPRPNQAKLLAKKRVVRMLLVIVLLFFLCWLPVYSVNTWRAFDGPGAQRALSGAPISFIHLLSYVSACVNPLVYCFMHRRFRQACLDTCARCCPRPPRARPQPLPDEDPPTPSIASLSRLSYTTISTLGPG

Rattus norvegicus [3] = species: Rattus norvegicus; assay: Antagonist activity against amylase secretion from rat pancreatic acini; type: functional, organism-based

Compound | EC50 (Rattus norvegicus [1]; Rattus norvegicus) [nM] | IC50 [2] [nM] | further results
CCCC[C@H](NC(=O)[C@H](Cc1ccc(OS(=O)(=O)O)cc1)NC(=O)OC(C)(C)C)C(=O)NCC(=O)N[C@@H](Cc1c[nH]c2ccccc12)C(=O)N[C@@H](CCCC)C(=O)N[C@@H](CC(=O)O)C(=O)NC(Cc1ccccc1)Cc1ccccc1 | 700 |  | 
CCCC[C@H](NC(=O)[C@H](Cc1ccc(OS(=O)(=O)O)cc1)NC(=O)OC(C)(C)C)C(=O)NCC(=O)N[C@H](Cc1c[nH]c2ccccc12)C(=O)N[C@@H](CCCC)C(=O)N[C@@H](CC(=O)O)C(=O)NCC(c1ccccc1)c1ccccc1 | 9300 |  | 
CCCC[C@H](NC(=O)[C@H](Cc1ccc(OS(=O)(=O)O)cc1)NC(=O)OC(C)(C)C)C(=O)NCC(=O)N[C@@H](Cc1c[nH]c2ccccc12)C(=O)N[C@@H](CCCC)C(=O)N[C@@H](CC(=O)O)C(=O)NCC(c1ccccc1)c1ccccc1 | 32 |  | 
CCCC[C@H](NC(=O)[C@H](Cc1ccc(OS(=O)(=O)O)cc1)NC(=O)OC(C)(C)C)C(=O)NCC(=O)N[C@H](Cc1c[nH]c2ccccc12)C(=O)N[C@@H](CCCC)C(=O)N[C@@H](CC(=O)O)C(=O)NC(Cc1ccccc1)Cc1ccccc1 | 86000 |  | 
CCCC[C@H](NC(=O)[C@H](Cc1ccc(OS(=O)(=O)O)cc1)NC(=O)OC(C)(C)C)C(=O)NCC(=O)N[C@H](Cc1c[nH]c2ccccc12)C(=O)N[C@@H](CCCC)C(=O)N[C@@H](CC(=O)O)C(=O)N(C)CCc1ccccc1 |  |  | IC50 (Rattus norvegicus [3]): 26000 nM

Now from value to compound, other results behind:

EC50 (Rattus norvegicus [1]; Rattus norvegicus) [nM] | IC50 [2] [nM] | Compound | further results
 | 500 | CCCC[C@H](NC(=O)[C@H](Cc1ccc(OS(=O)(=O)O)cc1)NC(=O)OC(C)(C)C)C(=O)NCC(=O)N[C@H](Cc1c[nH]c2ccccc12)C(=O)N[C@@H](CCCC)C(=O)N[C@@H](CC(=O)O)C(=O)NCCc1ccccc1 | IC50 (Rattus norvegicus [3]): 30000 nM
 | 100 | CCCC[C@H](NC(=O)[C@H](Cc1ccc(OS(=O)(=O)O)cc1)NC(=O)OC(C)(C)C)C(=O)NCC(=O)N[C@@H](Cc1c[nH]c2ccccc12)C(=O)N[C@@H](CCCC)C(=O)N[C@@H](CC(=O)O)C(=O)NCCc1ccccc1 | EC50 (Rattus norvegicus [1]): 30 nM
 | 48 | CCCC[C@H](NC(=O)C(Cc1c[nH]c2ccccc12)NC(=O)CNC(=O)[C@H](CCCC)NC(=O)[C@H](Cc1ccc(OS(=O)(=O)O)cc1)NC(=O)OC(C)(C)C)C(=O)N[C@@H](CC(=O)O)C(=O)NCCc1ccccc1 (single isomer, unassigned) | EC50 (Rattus norvegicus [1]): 70 nM
